The source made the active and inactive calls.
Columns and labels:
HEK293 = assay: Fluorescence-based counterscreen for potentiators or agonists of NPY-Y2: cell-based high-throughput dose response assay to identify inhibitors of cyclic nucleotide gated ion channel (CNGC) activity. In this assay, the parental HEK293 cell line transfected with a cyclic-nucleotide gated ion channel (CNGC)-based cAMP sensor is used to measure inhibition of isoproterenol-induced CNGC activity by test compound.; format: functional; conditions: Homo sapiens
[1] = biological target: Neuropeptide Y receptor type 2 (Homo sapiens, UniProt P49146); assay: Fluorescence-based cell-based high-throughput dose response assay for agonists of NPY-Y2. [Related pubchem assays: 1703 (Screening assay (CNGC inhibitors).), 1359 (Screening assay (NPY-Y2 potentiators or agonists).), 1304 (Screening assay (NPY-Y1 potentiators or agonists).), 1710 (Screening assay (NPY-Y2 agonists).), 1791 (Summary AID.)]; format: functional
Chain of Neuropeptide Y receptor type 2 (P49146 whole entry): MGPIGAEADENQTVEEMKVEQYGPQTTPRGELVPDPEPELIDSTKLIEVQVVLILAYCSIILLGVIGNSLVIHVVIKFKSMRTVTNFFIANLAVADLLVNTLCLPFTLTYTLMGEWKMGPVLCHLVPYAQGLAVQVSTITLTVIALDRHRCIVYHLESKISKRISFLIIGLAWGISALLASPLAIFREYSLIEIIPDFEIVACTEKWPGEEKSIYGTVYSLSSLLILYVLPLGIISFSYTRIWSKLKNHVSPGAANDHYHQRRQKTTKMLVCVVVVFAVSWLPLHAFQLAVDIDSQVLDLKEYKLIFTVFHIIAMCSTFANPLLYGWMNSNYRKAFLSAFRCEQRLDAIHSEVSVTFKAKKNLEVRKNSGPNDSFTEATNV

[2] = microbe, parasite or virus in culture; format: functional; conditions: Mycobacterium tuberculosis
[3] = biological target: Neuropeptide Y receptor type 1 (Homo sapiens, UniProt P25929); assay: Fluorescence-based counterscreen for agonists of NPY-Y2: cell-based high-throughput dose response assay for agonists of NPY-Y1.; format: functional
Chain of Neuropeptide Y receptor type 1 (P25929 whole entry): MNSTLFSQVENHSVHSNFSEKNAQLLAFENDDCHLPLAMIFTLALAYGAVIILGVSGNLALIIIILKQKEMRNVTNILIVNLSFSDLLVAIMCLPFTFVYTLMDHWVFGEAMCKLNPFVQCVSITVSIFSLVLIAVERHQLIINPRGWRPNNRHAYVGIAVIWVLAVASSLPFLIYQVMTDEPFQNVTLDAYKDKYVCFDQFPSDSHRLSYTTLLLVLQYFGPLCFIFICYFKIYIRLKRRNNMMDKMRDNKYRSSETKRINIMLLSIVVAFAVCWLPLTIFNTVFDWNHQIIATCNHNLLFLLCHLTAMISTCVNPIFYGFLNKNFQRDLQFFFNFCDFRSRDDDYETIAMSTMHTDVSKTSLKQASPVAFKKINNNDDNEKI

NS3 = NS3 (Hepatitis C virus, UniProt A3EZJ3); assay: PubChem AID 2173; parameters: species or system Hepacivirus hominis
Chain of NS3 (A3EZJ3 whole entry): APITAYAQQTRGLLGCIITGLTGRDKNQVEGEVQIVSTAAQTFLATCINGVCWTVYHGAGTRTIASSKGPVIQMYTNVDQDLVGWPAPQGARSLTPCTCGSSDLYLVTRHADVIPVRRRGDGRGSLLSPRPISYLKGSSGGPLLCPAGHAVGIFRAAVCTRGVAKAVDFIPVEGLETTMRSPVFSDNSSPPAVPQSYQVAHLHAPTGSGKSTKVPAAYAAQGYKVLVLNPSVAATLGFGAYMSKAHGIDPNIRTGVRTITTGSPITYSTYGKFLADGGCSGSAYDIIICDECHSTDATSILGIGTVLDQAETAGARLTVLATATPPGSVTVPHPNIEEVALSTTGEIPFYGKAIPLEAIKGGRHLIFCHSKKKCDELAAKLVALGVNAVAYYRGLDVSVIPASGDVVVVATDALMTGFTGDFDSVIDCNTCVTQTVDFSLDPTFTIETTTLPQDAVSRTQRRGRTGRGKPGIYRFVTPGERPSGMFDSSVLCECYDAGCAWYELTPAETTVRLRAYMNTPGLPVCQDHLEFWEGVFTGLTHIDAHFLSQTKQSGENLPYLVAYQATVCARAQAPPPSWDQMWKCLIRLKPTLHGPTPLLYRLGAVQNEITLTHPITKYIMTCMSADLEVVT

[4] = biological target: Induced myeloid leukemia cell differentiation protein Mcl-1 (Homo sapiens, UniProt Q07820); format: functional
Chain of Induced myeloid leukemia cell differentiation protein Mcl-1 (Q07820 whole entry): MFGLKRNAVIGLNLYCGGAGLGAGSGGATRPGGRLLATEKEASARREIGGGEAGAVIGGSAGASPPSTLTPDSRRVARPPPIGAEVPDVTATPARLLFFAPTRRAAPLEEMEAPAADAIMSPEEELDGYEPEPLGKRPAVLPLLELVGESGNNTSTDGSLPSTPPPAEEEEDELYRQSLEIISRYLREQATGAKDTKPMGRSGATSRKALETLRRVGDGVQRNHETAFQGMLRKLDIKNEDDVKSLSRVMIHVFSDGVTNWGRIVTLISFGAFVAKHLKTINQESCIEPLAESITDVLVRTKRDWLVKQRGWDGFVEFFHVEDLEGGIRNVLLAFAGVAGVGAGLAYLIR

[5] = biological target: T1, Heat shock factor protein 1 (Mus musculus, UniProt P38532); assay: enhancement of HSF1-driven luciferase signal – cell-based, NIH3T3, luminescence, dose retest, confirmation (AID 435004); format: functional;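 further: stress induced by proteasome inhibitor MG132 added 30 min after compound; luciferase reporter driven by HSF1 response element in NIH3T3 cells; actives raise luminescence as potentiators of the MG132 stress response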
T1 sequence (P38532 whole entry): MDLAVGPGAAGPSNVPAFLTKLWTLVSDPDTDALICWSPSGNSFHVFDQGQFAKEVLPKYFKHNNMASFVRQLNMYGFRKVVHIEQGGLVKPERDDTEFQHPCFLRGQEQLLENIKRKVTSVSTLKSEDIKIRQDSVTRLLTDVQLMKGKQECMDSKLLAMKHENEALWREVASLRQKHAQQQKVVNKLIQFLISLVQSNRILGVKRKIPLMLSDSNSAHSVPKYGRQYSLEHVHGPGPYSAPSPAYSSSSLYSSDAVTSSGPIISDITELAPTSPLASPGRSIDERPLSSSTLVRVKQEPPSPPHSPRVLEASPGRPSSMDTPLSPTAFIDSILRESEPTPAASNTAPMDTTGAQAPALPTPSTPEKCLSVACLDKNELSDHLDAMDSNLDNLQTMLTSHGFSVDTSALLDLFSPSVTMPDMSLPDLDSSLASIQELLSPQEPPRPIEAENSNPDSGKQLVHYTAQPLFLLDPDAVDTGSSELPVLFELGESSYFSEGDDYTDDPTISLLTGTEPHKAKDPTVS

[6] = biological target: Mothers against decapentaplegic homolog 3 (Homo sapiens, UniProt P84022); assay: blockers of Smad3 complex formation in lysate – cell lysate, secondary confirmation, chemiluminescent ELISA, HEK293 lysate, dose response (AID 1058); format: functional
Chain of Mothers against decapentaplegic homolog 3 (P84022 whole entry): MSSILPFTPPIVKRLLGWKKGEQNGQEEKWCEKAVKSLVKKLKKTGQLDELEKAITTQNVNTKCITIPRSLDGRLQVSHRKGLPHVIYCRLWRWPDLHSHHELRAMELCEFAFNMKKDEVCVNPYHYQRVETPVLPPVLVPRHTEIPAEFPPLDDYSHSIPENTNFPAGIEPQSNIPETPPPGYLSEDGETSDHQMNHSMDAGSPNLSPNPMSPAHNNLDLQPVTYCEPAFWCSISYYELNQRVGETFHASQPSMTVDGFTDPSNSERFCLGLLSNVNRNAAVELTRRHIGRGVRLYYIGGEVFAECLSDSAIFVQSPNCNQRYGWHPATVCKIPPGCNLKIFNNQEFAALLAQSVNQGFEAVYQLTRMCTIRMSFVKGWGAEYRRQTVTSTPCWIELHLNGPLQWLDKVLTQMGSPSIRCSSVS

## CCN(CC)S(=O)(=O)c1ccc2ncc(C(=O)NCCC3=CCCCC3)c(O)c2c1
HEK293
  EC50: 10.1 µM (not active)
[1]
  EC50: 13.8 µM (not active)
[2]
  CC50: > 40 µM (active)
[3]
  EC50: 13.3 µM (not active)

## COc1ccc(NC2=NC(=O)/C(=C\C=C\c3ccco3)S2)cc1
NS3
  IC50: 25.9 µM (not active)
[4]
  IC50: 3.02 µM (active)
[5]
  EC50: > 260 µM (inactive)

## O=C(O)c1cc2cc(O)ccc2[nH]1
[6]
  IC50: 1.77 µM (not active)
